Values quoted from earlier work in patent publication US20130237476A1, “ADIPOSE TISSUE TARGETED PEPTIDES” (ABLARIS THERAPEUTICS INC., priority 2012, published 2013).
Where no end group is shown, it is not given here. [ ]: non-standard residue; d: D form. Ex = not defined here

How the values were obtained:
prohibitin = settings: Kolonin et al., Nat Med 2004; prohibitin expressed in adipose tissue
[1] = tested on: visceral adipose tissue (white fat)
[2] = diastereomeric peptide with 5th and 9th residues as L-analogs; comparator not stated

CKGGRAKDC [adipose targeting peptide]
association with prohibitin (prohibitin): associates with prohibitin

CKGGRAKDC-GG-D(KLAKLAKKLAKLAK) (CKGGRAKDCGG[dK][dL][dA][dK][dL][dA][dK][dK][dL][dA][dK][dL][dA][dK]; cysteine pairing not given here) [ABL-1, targeting peptide operably linked to an apoptotic therapeutic peptide]
obesity reversal ([1]; animal models, after resorption of established white fat): rapid obesity reversal
ablation of visceral adipose tissue ([1]; targets prohibitin in adipose vascular endothelial cells): cause ablation of visceral adipose tissue

D,L-(KExAKExAK)2 (K[Ex]AK[Ex]AKK[Ex]AK[Ex]AK; reading uncertain; also: D/L diastereomeric residues, positions not given here) [diasteriomeric peptide in which the 5th and 9th residues were replaced with L-analogs to disrupt alpha helicity]
hemolytic activity [2]: greatly reduced
